In brackets after ≈: the same amount, converted by molar mass. Several values for one entry are separate records, joined by “and”; a condition that tells them apart may be missing. Identical values can stand only once.
Legend:
Thermal stability test = format: physicochemical
Procedure: A test was carried out on the thermal stability of the BIT/Zn salt obtained in Example 1 and of BIT. As a result, BIT broke down at 300° C. or less, whereas the BIT/Zn salt remained stable even at 400° C.

[1] = system: Staphylococcus aureus NBRC 12732; experiment: Antibacterial test using a coated film (JIS Z 2801), Staphylococcus aureus; format: cell-based
Procedure: (§1) Regarding the BIT/Zn salt obtained in Example 1, an antibacterial test was carried out using a coated film.
(§2) For the samples, 2 types of samples were used; i.e., A) the BIT/Zn salt (in the form of a powder containing 79.7% of active ingredients) and B) a BIT material/SC formulation (i.e., Bestcide-NS manufactured by Nippon Soda Co., Ltd. containing 15.0% of active ingredients). For the coating material, an aqueous acrylic emulsion coating material manufactured by Nippe Home Products Co., Ltd. (a preservative-free product) was used.
(§3) (1) Preparation of Test Specimen
(§4) To a blank coating material, either A) 0.019% by weight of the BIT/Zn salt or B) 0.1% by weight of the BIT technical product/SC formulation was added, and the resultant was then stirred and mixed. The coating material to which the BIT/Zn salt was added was further subjected to an ultrasonic treatment to prepare a uniform dispersion.
(§5) Subsequently, the obtained drug-added coating materials were applied onto both sides ([…] for each side) of a sterilized filter paper having a size of 50×50 mm, and the resultant was cured at room temperature for 24 hours. Test specimens where no drug was added were also prepared in the same manner.
The test was carried out in accordance with JIS Z 2801. In other words, two strains of bacteria were used for the test; i.e., Escherichia coli NBRC 3972 (Escherichia coli) and Staphylococcus aureus NBRC 12732 (Staphylococcus aureus), and their cultures preincubated in an NA medium were diluted with a 500-fold diluted NB liquid medium to prepare bacterial suspensions for inoculation. 0.4 ml of the bacterial suspension was inoculated onto each test specimen (i.e., 50×50 mm sized filter paper with a coated film thereon), and the resultant was covered with a covering film (which was already sterilized and having a size of 45×45 mm). […] Thereafter, the sample surface and the covering film were washed using 10 ml of an SCDLP medium, and the number of bacterial cells per 1 ml of the washed out liquid was calculated by counting the number of colonies using an NA medium. […]

[2] = system: Aspergillus niger NBRC6342; experiment: Test for determining minimum concentration for inhibition of growth (agar plate dilution method), Aspergillus niger; format: cell-based; details: for MIC value (mM/L) Aspergillus niger NBRC6342: MIC on a molar basis, based on the molecular weights; for MIC value: concentration of active ingredient, potato dextrose agar, strain not given in Table 2
Excerpt: (§6) (Test for Determining Minimum Concentration for Inhibition of Growth)
(§7) For the test samples, 3 types of samples were used; i.e., the BIT/Zn salt obtained in Example 1 (in the form of a powder containing 79.7% of active ingredients), a BIT material/SC formulation (i.e., Bestcide-NS manufactured by Nippon Soda Co., Ltd. containing 33% of active ingredients), and ZnO (zinc oxide) of 99.0% or greater (manufactured by Wako Pure Chemical Industries, Ltd.). Evaluations were made by conducting an agar plate dilution method using a potato dextrose agar medium. Two fungal strains; i.e., Aspergillus niger NBRC6342 and Cladosporium cladosporioides NBRC6348, were used as microorganisms for the test, and the BIT/Zn salt, BIT and ZnO were used at a concentration of 50 to 1,000 mg/L. The results are shown in Table 2 and Table 3. It should be noted that in Table 3, the results on the analysis of minimum inhibitory concentration (MIC) based on the molecular weights (i.e., MIC values on a molar basis) are shown.

ear auricle of a mouse = experiment: Local lymph node proliferation assay using a mouse (ear auricle irritation); format: in vivo; details: for Thickness of ear auricle: 50 μL/mouse per day on both ears, once a day for 3 days, day of measurement not given; for Extent of hyperplasia: ear auricle thickness on day 3 minus day 1, 0.1 mm or greater = irritating; for General symptoms: observation during administration period
Excerpt: (Local Lymph Node Proliferation Assay using a Mouse)
(1) Administration Solution
(A) An administration solution A prepared by suspending the BIT/Zn salt obtained in Example 1 in a mixed solvent, which was composed of N,N-dimethylacetamide, acetone and ethanol and which contained the respective component at a ratio of 4:3:3 (volume ratio) (hereafter, frequently referred to as “DAE”), so as to achieve a 5% by weight solution.
(B) An administration solution B prepared by dissolving BIT in DAE so as to achieve a 5% by weight solution.
(2) Application of an Administration Solution
12.5 μL of the administration solutions A and B were respectively applied inside and outside the ear auricle of a mouse using a micropipette. This process was carried out for both ears, once a day, and for 3 days. The applied dose was 50 μL/mouse for one day.
(3) Measurement of Body Weight
Regarding the mouse provided for the experiment, the body weight thereof was measured just before the application on day 0 of the experiment, on day 3 of the experiment, and just before the dissection thereof (on day 6).
(4) Measurement of Ear Auricle Thickness
Regarding the mouse provided for the experiment, the ear auricle thickness thereof was measured on day 1 and on day 3 of the experiment, using a digital thickness gage manufactured by Teclock Corporation.
The extent of hyperplasia was calculated by the formula: (ear auricle thickness on day 3 of the experiment)—(ear auricle thickness on day 1 of the experiment). When the extent of hyperplasia was 0.1 mm or greater, it was evaluated as “irritating”.
(5) Observation of Symptoms
During the administration period, the observations were made once just before the administration and once 3 hours after the administration. During other periods, the observations were made once a day. The presence and absence of erythema in the ear auricle was observed just before the administrations on day 1, day 2 and on day 3 of the experiment, and the observations made were evaluated in scores as 0 to 16 grades.
Method for Evaluating Mouse Eears
Grades 0-9: Evaluated as possibly not irritating to humans.
Grades 10-15: Evaluated as possibly slightly irritating to humans.
Grades greater than grade 15: Evaluated as possibly irritating to humans.

[3] = system: Cladosporium cladosporioides NBRC6348; experiment: Test for determining minimum concentration for inhibition of growth (agar plate dilution method), Cladosporium cladosporioides; format: cell-based; details: MIC on a molar basis, based on the molecular weights
Excerpt: as §6, §7

[4] = system: Escherichia coli NBRC 3972; experiment: Antibacterial test using a coated film (JIS Z 2801), Escherichia coli; format: cell-based
Procedure: as §1, §2, §3, §4, §5
The test was carried out in accordance with JIS Z 2801. In other words, two strains of bacteria were used for the test; i.e., Escherichia coli NBRC 3972 (Escherichia coli) and Staphylococcus aureus NBRC 12732 (Staphylococcus aureus), and their cultures preincubated in an NA medium were diluted with a 500-fold diluted NB liquid medium to prepare bacterial suspensions for inoculation. 0.4 ml of the bacterial suspension was inoculated onto each test specimen (i.e., 50×50 mm sized filter paper with a coated film thereon), and the resultant was covered with a covering film (which was already sterilized and having a size of 45×45 mm). The prepared test specimen was put in a petri dish and incubated for 24 hours in a thermo-hygrostat at a temperature of 35±1° C. and a relative humidity of 95%. Thereafter, the sample surface and the covering film were washed using 10 ml of an SCDLP medium, and the number of bacterial cells per 1 ml of the washed out liquid was calculated by counting the number of colonies using an NA medium.
A coated film obtained using a blank coating material was used as a control.
The number of bacterial cells was observed, just after the inoculation (A), and after 24 hours of incubation (B).
2) Requirements for a Valid Test
1. {(A−B)/A}×100≦90 [A: just after the inoculation, B: after 24 hours of incubation]
2. Results of the viable cell count obtained in (A) were within a range from 1.0 to 5.0×10^5 cells per petri dish.
3. Results of the viable cell count obtained in the blank (untreated) were 1.0×10^3 or more cells per petri dish. […]

[5] = coated film, 24 hours at 35±1° C., 0.019% by weight BIT/Zn salt or 0.1% by weight BIT/SC in coating material
[6] = larger values indicate stronger antibacterial activity
[7] = logarithm of viable cell count after 24 hours

Row | Compound | Thermal stability (temperature of breakdown) (Thermal stability test) | Number of viable cells, Staphylococcus aureus [1, 5] | Antibacterial activity, Staphylococcus aureus [1, 6] | Logarithmic value, Staphylococcus aureus [1, 7] | MIC value (mM/L) Aspergillus niger NBRC6342 [2] | MIC value [2] | Activity level ([2]; statement covers both fungal strains) | Thickness of ear auricle (ear auricle of a mouse; 5% by weight in DAE) | Extent of hyperplasia (ear auricle of a mouse; 5% by weight in DAE) | General symptoms (ear auricle of a mouse; 5% by weight in DAE) | MIC value (mM/L) Cladosporium cladosporioides NBRC6348 [3] | Number of viable cells, Escherichia coli [4, 5] | Antibacterial activity, Escherichia coli [4, 6] | Logarithmic value, Escherichia coli [4, 7] | Antibacterial activity compared with BIT ([4]; statement covers both bacterial strains of Table 4) | Grade for erythema (ear auricle of a mouse; 5% by weight in DAE, score 0 to 16, 0-9 possibly not irritating, 10-15 slightly irritating, >15 irritating to humans) | Evaluation of irritation (ear auricle of a mouse; criterion: extent of hyperplasia 0.1 mm or greater)
1 | O=c1[n-]sc2ccccc12.O=c1[n-]sc2ccccc12.[Zn+2] [BIT/Zn salt, zinc salt of BIT] | > 400 °C | <10 Number of cells per petri dish | 3.6 | 1.0 | 2.0 mM/L | 750 mg/L | satisfactory to be put into practice | 0.34 mm | 0.04 mm | attachment of white powder on the ear auricle was observed 3 hours after the administration | <0.1 mM/L | <10 Number of cells per petri dish | 4.9 | 1.0 | same level of antibacterial activity as that of BIT | – | –
2 | [O]=[Zn] [ZnO, zinc oxide] | – | – | – | – | >12.3 mM/L | >1,000 mg/L | – | – | – | – | 6.10 mM/L | – | – | – | – | – | –
3 | O=c1[nH]sc2ccccc12 [BIT, 1,2-benzoisothiazolin-3-one] | ≤ 300 °C | – | – | – | 1.3 mM/L | 200 mg/L (≈ 1320 µM) | – | 0.39 mm | 0.1 mm and 0.10 mm | no abnormality was observed | <0.3 mM/L | – | – | – | – | 16 | irritating
